# Counter-ions that a name gives are not always drawn.
row,melting point [°C],SMILES
1,284,COc1ccc2c(COCc3ccccc3)nnc(NC3CCN(Cc4ccc5ccccc5c4)CC3)c2c1.Cl.Cl
2,139,COc1ccc(-c2nnc(NC3CCN(Cc4ccc(CO)cc4)CC3)c3cc(OC)ccc23)cc1.Cl.Cl
3,203,COc1ccc(-c2nnc(NC3CCN(Cc4ccc(CN)cc4)CC3)c3cc(OC)ccc23)cc1.Cl.Cl.Cl
4,189,"COc1ccc2cnnc(NC3CCN(Cc4ccc5ccccc5c4)CC3)c2c1 (as salt: HCl) (hydrate or solvate) [Compound 70, 7-methoxy-N-[1-(2-naphthylmethyl)piperidin-4-yl]-phthalazin-1-amine]"
5,280,"COc1ccc(-c2nnc(N[C@H]3CCN(Cc4ccc5ccccc5c4)C3)c3cc(OC)ccc23)cc1 (as salt: HCl) (hydrate or solvate) [Compound 96, 4-(4-Methoxyphenyl)-7-methoxy-N-[(3S)-1-(naphthalen-2-ylmethyl)pyrrolidin-3-yl]phthalazin-1-amine]"
6,241,"COC(=O)c1ccc(CN2CCC(Nc3nnc(-c4ccc(OC)cc4)c4ccc(OC)cc34)CC2)cc1 (as salt: HCl) (hydrate or solvate) [Compound 107, methyl {4-[(4-{[7-methoxy-4-(4-methoxyphenyl)phthalazin-1-yl]amino}piperidin-1-yl)methyl]phenyl}carboxylate]"
7,270,"COc1ccc(-c2nnc(NC3CCN(Cc4ccc(C#N)cc4)CC3)c3cc(OC)ccc23)cc1 (as salt: HCl) (hydrate or solvate) [Compound 108, N-[1-(4-cyanobenzyl)piperidin-4-yl)-7-methoxy-4-(4-methoxyphenyl)phthalazin-1-amine]"
8,241,"COc1ccc(-c2nnc(NC3CCN(Cc4ccc(C(C)=O)cc4)CC3)c3cc(OC)ccc23)cc1 (as salt: HCl) (hydrate or solvate) [Compound 121, 1-{4-[(4-{[7-methoxy-4-(4-methoxyphenyl)phthalazin-1-yl]amino}piperidin-1-yl)methyl]phenyl}ethanone]"
9,186,"COc1ccc2c(CO)nnc(NC3CCN(Cc4ccc5ccccc5c4)CC3)c2c1 (as salt: HCl) (hydrate or solvate) [Compound 148, 4-Hydroxymethyl-7-methoxy-N-[1-(naphthalen-2-ylmethyl)piperidin-4-yl]phthalazin-1-amine]"
10,148,"COc1ccc(-c2nnc(NC3CCN(Cc4ccc(C)cc4)CC3)c3cc(OC)ccc23)cc1 (as salt: HCl) [Compound 75, 7-methoxy-4-(4-methoxyphenyl)-N-[1-(4-methylbenzyl)piperidin-4-yl]phthalazin-1-amine]"
11,176,COc1ccc(-c2nnc(NC3CC4CCC(C3)N4Cc3ccc4ccccc4c3)c3cc(OC)ccc23)cc1 (stereo not shown) (as salt: salt) (hydrate or solvate)
12,121,"COc1ccc2c(-c3ccccc3)nnc(NC3CCN(Cc4ccc5ccccc5c4)CC3)c2c1 (as salt: salt) (hydrate or solvate) [Compound 1, 7-methoxy-N-[1-(naphthalen-2-ylmethyl)piperidin-4-yl]-4-phenylphthalazin-1-amine]"
13,158,"COc1ccc2c(-c3ccccc3OC)nnc(NC3CCN(Cc4ccc5ccccc5c4)CC3)c2c1 (as salt: salt) (hydrate or solvate) [Compound 2, 7-methoxy-4-(2-methoxyphenyl)-N-[1-(naphthalen-2-ylmethyl)piperidin-4-yl]phthalazin-1-amine]"
14,195,"COc1ccc(-c2nnc(NC3CCN(Cc4ccc5ccccc5c4)CC3)c3cc(OC)ccc23)cc1 (as salt: salt) (hydrate or solvate) [Compound 3, 7-methoxy-4-(4-methoxyphenyl)-N-[1-(naphthalen-2-ylmethyl)piperidin-4-yl]phthalazin-1-amine]"
15,154,"COc1cccc(-c2nnc(NC3CCN(Cc4ccc5ccccc5c4)CC3)c3cc(OC)ccc23)c1 (as salt: salt) (hydrate or solvate) [Compound 5, 7-methoxy-4-(3-methoxyphenyl)-N-[1-(naphthalen-2-ylmethyl)piperidin-4-yl]phthalazin-1-amine]"
16,176,"COc1cccc(-c2nnc(NC3CCN(Cc4ccccc4)CC3)c3cc(OC)ccc23)c1 (as salt: salt) (hydrate or solvate) [Compound 6, N-(1-benzylpiperidin-4-yl)-7-methoxy-4-(3-methoxyphenyl)phthalazin-1-amine]"
17,150,"COc1ccc(-c2nnc(NC3CCN(Cc4ccccc4)CC3)c3cc(OC)ccc23)cc1 (as salt: salt) (hydrate or solvate) [Compound 7, N-(1-benzylpiperidin-4-yl)-7-methoxy-4-(4-methoxyphenyl)phthalazin-1-amine]"

row,melting point [°C],SMILES
1,115,"COc1ccc2c(-c3cccs3)nnc(NC3CCN(Cc4ccccc4)CC3)c2c1 (as salt: salt) (hydrate or solvate) [Compound 8, N-(1-benzylpiperidin-4-yl)-7-methoxy-4-(thiophen-2-yl)phthalazin-1-amine]"
2,198,"COc1ccc(-c2nnc(NC3CCN(Cc4ccc5ccccc5c4)CC3)c3cc(C)ccc23)cc1 (as salt: salt) (hydrate or solvate) [Compound 9, 4-(4-methoxyphenyl)-7-methyl-N-[1-(naphthalen-2-ylmethyl)piperidin-4-yl]phthalazin-1-amine]"
3,131,"COc1ccc2c(-c3ccc(OC)c(OC)c3)nnc(NC3CCN(Cc4ccc5ccccc5c4)CC3)c2c1 (as salt: salt) (hydrate or solvate) [Compound 10, 4-(3,4-Dimethoxyphenyl)-7-methoxy-N-[1-(naphthalen-2-ylmethyl)piperidin-4-yl]phthalazin-1-amine]"
4,169,"COc1cc(OC)c2cnnc(NC3CCN(Cc4ccccc4)CC3)c2c1 (as salt: salt) (hydrate or solvate) [Compound 13, N-(1-benzylpiperidin-4-yl)-5,7-dimethoxyphthalazin-1-amine]"
5,206,"COc1cc(OC)c2cnnc(NC3CCN(Cc4ccc5ccccc5c4)CC3)c2c1 (as salt: salt) (hydrate or solvate) [Compound 14, 5,7-dimethoxy-N-[1-(naphthalen-2-ylmethyl)piperidin-4-yl]phthalazin-1-amine]"
6,155,"COc1ccc2c(-c3ccc(C)s3)nnc(NC3CCN(Cc4ccccc4)CC3)c2c1 (as salt: salt) (hydrate or solvate) [Compound 16, N-(1-benzylpiperidin-4-yl)-7-methoxy-4-(5-methylthiophen-2-yl)phthalazin-1-amine]"
7,115,"COc1ccc(-c2nnc(NC3CCN(Cc4cccc(C#N)c4)CC3)c3cc(OC)ccc23)cc1 (as salt: salt) (hydrate or solvate) [Compound 18, N-[1-(3-cyanophenylmethyl)-piperidin-4-yl]-7-methoxy-4-(4-methoxyphenyl)phthalazin-1-amine]"
8,135,"CCc1nnc(NC2CCN(Cc3ccc4ccccc4c3)CC2)c2cc(OC)ccc12 (as salt: salt) (hydrate or solvate) [Compound 20, 4-Ethyl-7-methoxy-N-[1-(naphthalen-2-ylmethyl)piperidin-4-yl]phthalazin-1-amine]"
9,104,"COc1ccc2c(Cc3ccccc3)nnc(NC3CCN(Cc4ccc5ccccc5c4)CC3)c2c1 (as salt: salt) (hydrate or solvate) [Compound 21, 4-Benzyl-7-methoxy-N-[1-(naphthalen-2-ylmethyl)piperidin-4-yl]phthalazin-1-amine]"
10,250,"CCc1nnc(NC2CCN(Cc3ccc4ccccc4c3)CC2)c2cc(OC)cc(OC)c12 (as salt: salt) (hydrate or solvate) [Compound 23, 5,7-Dimethoxy-4-ethyl-N-[1-(naphthalen-2-ylmethyl)piperidin-4-yl]phthalazin-1-amine]"
11,160,"COc1ccc(-c2nnc(NC3CCN(Cc4ccc5occc5c4)CC3)c3cc(OC)ccc23)cc1 (as salt: salt) (hydrate or solvate) [Compound 26, N-[1-(1-benzofuran-5-ylmethyl)piperidin-4-yl]-7-methoxy-4-(4-methoxyphenyl)phthalazin-1-amine]"
12,130,"COc1ccc(-c2nnc(NC3CCN(Cc4ccc(C)c(C)c4)CC3)c3cc(OC)ccc23)cc1 (as salt: salt) (hydrate or solvate) [Compound 29, N-[1-(3,4-dimethylbenzyl)piperidin-4-yl]-7-methoxy-4-(4-methoxyphenyl)phthalazin-1-amine]"
13,180,"COc1ccc(-c2nnc(NC3CCN(Cc4ccc5ncsc5c4)CC3)c3cc(OC)ccc23)cc1 (as salt: salt) (hydrate or solvate) [Compound 59, N-[1-(1,3-benzothiazol-6-ylmethyl)piperidin-4-yl]-7-methoxy-4-(4-methoxyphenyl)phthalazin-1-amine]"
14,176,"COc1ccc(-c2nnc(NC3CCN(Cc4ccc5sccc5c4)CC3)c3cc(OC)ccc23)cc1 (as salt: salt) (hydrate or solvate) [Compound 60, N-[1-(1-benzothien-5-ylmethyl)piperidin-4-yl]-7-methoxy-4-(4-methoxyphenyl)phthalazin-1-amine]"
15,257,"COc1ccc(-c2nnc(NC3CCN(Cc4c[nH]c5ccccc45)CC3)c3cc(OC)ccc23)cc1 (as salt: salt) (hydrate or solvate) [Compound 65, N-[1-(1H-indol-3-ylmethyl)piperidin-4-yl]-7-methoxy-4-(4-methoxyphenyl)phthalazin-1-amine]"
16,101,"CCCCc1nnc(NC2CCN(Cc3ccc4ccccc4c3)CC2)c2cc(OC)ccc12 (as salt: salt) (hydrate or solvate) [Compound 67, 4-Butyl-7-methoxy-N-[1-(naphthalen-2-ylmethyl)piperidin-4-yl]phthalazin-1-amine]"
17,175,"COc1ccc2c(-c3ccc(F)cc3)nnc(NC3CCN(Cc4ccc5ccccc5c4)CC3)c2c1 (as salt: salt) (hydrate or solvate) [Compound 82, 4-(4-Fluorophenyl)-7-methoxy-N-[1-(naphthalen-2-ylmethyl)piperidin-4-yl]phthalazin-1-amine]"

# Reference: patent US7423030B2, “1-amino-phthalazine derivatives, the preparation and the therapeutic use thereof” (Sanofi-Aventis, priority 2004, dated 2008)
